Where a name gives a salt, the structure may show the parent alone.
melting point	SMILES
170 to 174 °C	COC(=O)C1=C(C)NC(=O)N(C(=O)NCCCN2CCC(c3ccccn3)CC2)C1c1ccc(F)c(F)c1 (stereo not drawn) (as salt: hydrochloride) [Example 21, 6-(3,4-Difluorophenyl)-5-methoxycarbonyl-4-methyl-2-oxo-1-{N-[4-(2-pyridyl)-piperidine-1-yl]propyl)carboxamido-1,2,3,6-tetrahydropyrimidine Dihydrochloride]
163 to 165 °C	COC(=O)C1=C(C)N=C(C)N(CCCC(O)CN2CCC(c3ccccn3)CC2)C1c1ccc(F)c(F)c1 (single isomer, unassigned; (+)) (as salt: HCl) [Example 62, (+)-6-(3,4-Difluorophenyl)-1,6-dihydro-1-(4-hydroxy-5-(4-(2-pyridyl)piperidin-1-yl)pentyl)-5-methoxycarbonyl-2,4-dimethylpyrimidine]
152 to 155 °C	CNC(=O)C1=C(C)N=C(C)N(CCCCCN2CCC(C(=O)OC)(c3ccccc3)CC2)C1c1ccc(F)cc1F (stereo not drawn) (as salt: HCl)
170 to 176 °C	COC(=O)C1=C(C)N=C(C)N(CCCCCN2CCC(C(=O)OC)(c3ccccc3)CC2)C1c1ccc(F)c(F)c1 (stereo not drawn) (as salt: HCl) [Example 23, 6-(3,4-Difluorophenyl)-1,6-dihydro-5-methoxycarbonyl-1-(5-(4-methoxycarbonyl-4-phenylpiperidin-1-yl)-pentyl)-2,4-dimethylpyrimidine]
95 to 97 °C	COC(=O)C1=C(C)N=C(C)N(CCCCCNCCCc2ccccc2)C1c1ccc(F)c(F)c1 (stereo not drawn) (as salt: HCl) [Example 61, 6-(3,4-Difluorophenyl)-1,6-dihydro-5-methoxycarbonyl-2,4-dimethyl-1-(5-(3-phenylpropylamino)pentyl)pyrimidine]
53 to 57 °C	COCN1C(C)=NC(C)=C(C(=O)NCCCN2CCC(C(=O)OC)(c3ccccc3)CC2)C1c1ccc(F)c(F)c1 (stereo not drawn)
